The subject of assay [1] is BM3249, S. aureus clinical isolate. Briefly: MIC by serial twofold dilutions in MHA, strain BM3249. Format: cell-based. Here is the method:
(§1) Staphylococci were grown in Brain Heart Infusion (Difco Laboratories, Detroit, Mich.), and E. coli cells were grown in Luria broth (10 g.1^−1 of tryptone, 5 g.^−1 of yeast extract, and 10 g.1^−1 of NaCl) Solid media contained 15 g.1^−1 of agar. Bacteria were incubated at 37° C. and for liquid cultures with agitation. Susceptibility to antibiotics was tested on Mueller-Hinton agar (MHA) (Diagnostics Pasteur, Marne-la-Coquette, France).
(§2) Susceptibility to antibiotics was determined by a disk diffusion assay (12) with commercially available antibiotic disks (Diagnostics Pasteur) and disks prepared in our laboratory as described previously (18). MICs of pristinamycin IIA and pristinamycin (Rhône-Poulenc Rorer) were determined with serial twofold dilutions of antibiotics in MHA, as described previously (2, 17).

In assay [2] the test system is BM3250, S. aureus clinical isolate. Kind of assay: MIC by serial twofold dilutions in MHA, strain BM3250. The format is cell-based. Here is the method:
as §1, §2

In assay [3] the test system is BM3252, S. aureus clinical isolate. Briefly: MIC by serial twofold dilutions in MHA, strain BM3252. Format: cell-based. Here is the method: as §1, §2
Assay [4] has as its system BM3318, S. aureus clinical isolate. Kind of assay: MIC by serial twofold dilutions in MHA, strain BM3318. Format: cell-based. Here is the method: as §1, §2
In assay [5] the test system is BM3327, S. aureus clinical isolate. Briefly: MIC by serial twofold dilutions in MHA, strain BM3327. Format: cell-based. Here is the method: as §1, §2
Assay [6] has as its system BM21926, S. aureus transformant: RN4220 (pIP 1810). Kind of assay: MIC by serial twofold dilutions in MHA, transformant carrying vgaC. The format is cell-based. To be noted: S. aureus RN4220 (pIP1810, carries vgaC) = BM21926. Here is the method:
as §1, §2
(§3) A DNA fragment of 1827-bp including vgaC was amplified with primers C and D (FIG. 1) from the cellular DNA of BM3327. This amplicon was cleaved with BamHl and KpnI and inserted between the BamHl and KpnI sites of the shuttle vector, pRB374 (11), downstream from the vegII promoter carried by this vector. The resulting plasmid, pIP1810, was introduced by electroporation into the S. aureus recipient RN4220. It conferred resistance to pristinamycin IIA (MICs: 32 mg.1^−1 for RN4220 [pIP18101, and 2 mg.1^−1 for RN4220 [pRB374]).

For assay [7], the system named is RN4220 [pRB374]. Kind of assay: MIC by serial twofold dilutions in MHA, transformant with the empty vector. Format: cell-based. The following applies: S. aureus RN4220 [pRB374], vector without vgaC. Here is the method: as §1, §2, §3
The test system of assay [8] is four S. aureus isolates (BM3249, BM3250, BM3252 and BM3327). Kind of assay: MICs of the four isolates used in filter mating. The format is cell-based. The following applies: range over BM3249, BM3250, BM3252 and BM3327. Here is the method:
as §1, §2
Each of the four S. aureus isolates (BM3249, BM3250, BM3252 and BM3327: Table 1) resistant to PIIA (MICs : 64-128 mg. 1^−1) and related antibiotics was crossed on a membrane filter with the S. aureus recipient strain, ISP1127 (26). No transcipients were obtained by selection on pristinamycin IIA (frequency<10^−10 transcipients/donor).

Assay [9] has as its system resistant staphylococci. To be noted: staphylococci resistant to A compounds; cited from earlier work.

As for `CC1=C\[C@@H](O)CC(=O)Cc2nc(co2)C(=O)N2CCC=C2C(=O)O[C@H](C(C)C)[C@H](C)/C=C/C(=O)NC\C=C\1` [pristinamycin IIA], the MIC was found to be 64 mg.1^−1 in [1]; 64 mg.1^−1 in assay [2]; 64 mg.1^−1 in assay [3]; 128 mg.1^−1 in [4]; 128 mg.1^−1 in assay [5]; 32 mg.1^−1 in assay [6]. The results for the MIC entry in assay [6] (listed as SgA) and in assay [7] were “SgA (32 mg.1^−1) Km Nm Tm” and 2 mg.1^−1, respectively. The MICs in assay [8] is reported as 64-128 mg. 1^−1; in [9], 8 mg.1^1.

The values are drawn from patent US20020102678A1, “Staphylococcal gene, vgaC, conferring resistance to streptogramin A and related compounds” (priority 2000, published 2002).
